Assay: xn = mol fraction of the nth substance listed
Conditions: for surface tension liquid-gas: Pendant drop shape; for mass density: 101 kPa, Liquid, Vibrating tube method

Cc1ccc(C)c(C)c1 [1,2,4-trimethylbenzene] + CCCOC(C)=O
Conditions	mass density [kg/m3]	surface tension liquid-gas [mN/m]
298.15 K, x2 = 0	871.66	29.17
298.15 K, x2 = 0.0607	872.13	–
298.15 K, x2 = 0.1002	872.45	28.61
298.15 K, x2 = 0.1578	872.95	–
298.15 K, x2 = 0.2008	873.32	28.06
298.15 K, x2 = 0.2518	873.78	–
298.15 K, x2 = 0.302	874.24	27.51
298.15 K, x2 = 0.3504	874.71	–
298.15 K, x2 = 0.4003	875.2	26.97
298.15 K, x2 = 0.4568	875.78	–
298.15 K, x2 = 0.4993	876.23	26.44
298.15 K, x2 = 0.549	876.77	–
298.15 K, x2 = 0.6006	877.36	25.93
298.15 K, x2 = 0.6494	877.93	–
298.15 K, x2 = 0.7006	878.55	25.44
298.15 K, x2 = 0.7493	879.16	–
298.15 K, x2 = 0.7991	879.8	24.96
298.15 K, x2 = 0.8497	880.49	–
298.15 K, x2 = 0.8991	881.17	24.48
298.15 K, x2 = 0.9464	881.86	–
303.15 K, x2 = 0	867.61	28.67
303.15 K, x2 = 0.0982	868.25	28.09
303.15 K, x2 = 0.1994	868.98	27.53
303.15 K, x2 = 0.3006	869.76	26.96
303.15 K, x2 = 0.3996	870.56	26.4
303.15 K, x2 = 0.503	871.46	25.86
303.15 K, x2 = 0.6003	872.41	25.34
303.15 K, x2 = 0.6979	873.41	24.83
303.15 K, x2 = 0.7993	874.52	24.34
303.15 K, x2 = 0.8992	875.72	23.86
308.15 K, x2 = 0	863.59	28.17
308.15 K, x2 = 0.0986	864.07	27.57
308.15 K, x2 = 0.1998	864.65	26.99
308.15 K, x2 = 0.3028	865.29	26.41
308.15 K, x2 = 0.4004	865.93	25.83
308.15 K, x2 = 0.5036	866.67	25.27
308.15 K, x2 = 0.6003	867.44	24.74
308.15 K, x2 = 0.6977	868.27	24.22
308.15 K, x2 = 0.8	869.22	23.72
308.15 K, x2 = 0.9005	870.23	23.23
313.15 K, x2 = 0	859.54	27.67
313.15 K, x2 = 0.0497	859.64	–
313.15 K, x2 = 0.0998	859.82	–
313.15 K, x2 = 0.1005	–	27.05
313.15 K, x2 = 0.15	860.01	–
313.15 K, x2 = 0.2001	860.24	26.46
313.15 K, x2 = 0.2498	860.45	–
313.15 K, x2 = 0.2999	860.71	25.86
313.15 K, x2 = 0.35	860.98	–
313.15 K, x2 = 0.4001	861.25	25.26
313.15 K, x2 = 0.4503	861.53	–
313.15 K, x2 = 0.4997	861.83	–
313.15 K, x2 = 0.4998	–	24.69
313.15 K, x2 = 0.5502	862.15	–
313.15 K, x2 = 0.6001	862.48	24.15
313.15 K, x2 = 0.6499	862.81	–
313.15 K, x2 = 0.7	863.18	–
313.15 K, x2 = 0.7002	–	23.61
313.15 K, x2 = 0.7503	863.54	–
313.15 K, x2 = 0.7998	863.94	23.1
313.15 K, x2 = 0.85	864.35	–
313.15 K, x2 = 0.9002	864.79	22.61
313.15 K, x2 = 0.9495	865.18	–

Cc1cc(C)cc(C)c1 [1,3,5-trimethylbenzene] + CCCCOC(C)=O
Conditions	mass density [kg/m3]	surface tension liquid-gas [mN/m]
298.15 K, x2 = 0	861.04	28.09
298.15 K, x2 = 0.0736	861.9	–
298.15 K, x2 = 0.1009	862.23	27.72
298.15 K, x2 = 0.1521	862.84	–
298.15 K, x2 = 0.2018	863.45	27.34
298.15 K, x2 = 0.2523	864.09	–
298.15 K, x2 = 0.3003	864.7	26.98
298.15 K, x2 = 0.3499	865.36	–
298.15 K, x2 = 0.4005	866.03	26.61
298.15 K, x2 = 0.45	866.72	–
298.15 K, x2 = 0.4996	867.44	26.27
298.15 K, x2 = 0.5446	868.11	–
298.15 K, x2 = 0.5979	868.92	25.93
298.15 K, x2 = 0.6503	869.76	–
298.15 K, x2 = 0.7016	870.59	25.62
298.15 K, x2 = 0.7504	871.44	–
298.15 K, x2 = 0.8005	872.32	25.36
298.15 K, x2 = 0.846	873.17	–
298.15 K, x2 = 0.8981	874.13	25.12
298.15 K, x2 = 0.9333	874.87	–
303.15 K, x2 = 0	856.96	27.67
303.15 K, x2 = 0.1005	858.04	27.29
303.15 K, x2 = 0.1997	859.17	26.9
303.15 K, x2 = 0.3	860.37	26.53
303.15 K, x2 = 0.3996	861.61	26.14
303.15 K, x2 = 0.5007	862.98	25.79
303.15 K, x2 = 0.6007	864.4	25.45
303.15 K, x2 = 0.7001	865.94	25.12
303.15 K, x2 = 0.7971	867.56	24.85
303.15 K, x2 = 0.9009	869.4	24.6
308.15 K, x2 = 0	852.84	27.24
308.15 K, x2 = 0.1002	853.8	26.84
308.15 K, x2 = 0.1986	854.82	26.44
308.15 K, x2 = 0.2997	855.94	26.05
308.15 K, x2 = 0.4003	857.12	25.66
308.15 K, x2 = 0.5007	858.39	25.29
308.15 K, x2 = 0.5997	859.71	24.94
308.15 K, x2 = 0.7005	861.18	24.6
308.15 K, x2 = 0.8	862.75	24.32
308.15 K, x2 = 0.9006	864.44	24.07
313.15 K, x2 = 0	848.74	26.82
313.15 K, x2 = 0.0498	849.12	–
313.15 K, x2 = 0.0997	849.59	26.39
313.15 K, x2 = 0.15	850.08	–
313.15 K, x2 = 0.2012	850.6	25.97
313.15 K, x2 = 0.2502	851.13	–
313.15 K, x2 = 0.2996	851.64	25.57
313.15 K, x2 = 0.3507	852.22	–
313.15 K, x2 = 0.3987	852.78	25.16
313.15 K, x2 = 0.4497	853.39	–
313.15 K, x2 = 0.5008	854	24.79
313.15 K, x2 = 0.5499	854.62	–
313.15 K, x2 = 0.5964	855.24	24.42
313.15 K, x2 = 0.6503	855.99	–
313.15 K, x2 = 0.6995	856.68	24.07
313.15 K, x2 = 0.7499	857.4	–
313.15 K, x2 = 0.7994	858.19	23.79
313.15 K, x2 = 0.8499	858.99	–
313.15 K, x2 = 0.9	859.83	23.54
313.15 K, x2 = 0.9495	860.67	–
